This passage reports melting point results from patent publication US20040063731A1, “Pharmaceutical formulation comprising pyrazolo[4,3-d]pyrimidines and endothelin receptor antagonists or thienopyrimidines and endothelin receptor antagonists” (priority 2001, published 2004).

Structures are written as SMILES. Counter-ions that a name gives are not always drawn.

One may read the melting point as the temperature, or range, at which the solid turns liquid. Turning to `COc1ccc(CNc2nc(CCC(=O)O)nc3sc4c(c23)CCCC4)cc1Cl` (as salt: salt) [Example 2, 3-[4-(3-chloro-4-methoxybenzylamino)-5,6,7,8-tetrahydro-[1]-benzothieno[2,3-d)pyrimidin-2-yl)propionic acid], the melting point is 135 °C. For the compound `COc1ccc(CNc2nc(-c3ccc(C(=O)O)cc3)nc3sc4ccccc4c23)cc1Cl` (as salt: salt) [Example 3, 4-[4-(3-chloro-4-methoxybenzylamino)-[1]-benzothieno[2,3-d]-pyrimidin-2-yl]benzoic acid], the melting point fell in the range of 189 to 190 °C. Turning to `CCCc1nn(C)c2c(NCc3ccc(OC)c(Cl)c3)nc(-c3ccc(C(=O)O)cc3)nc12` (as salt: salt) [Example 3, 4-[7-(3-chloro-4-methoxybenzylamino]-methyl-3-propyl-1H-pyrazolo-[4,3-d]pyrimidin-5-yl]benzoic acid], the melting point was 139 °C. Under `COc1ccc(CNc2nc(CCC(=O)O)nc3sc4c(c23)CCCC4)cc1Cl` [Example 2, 3-[4-(3-chloro-4-methoxybenzylamino)-5,6,7,8-tetrahydro-[1]-benzothieno[2,3-d)pyrimidin-2-yl)propionic acid] stands 229 °C.

The compound `CCCc1nn(C)c2c(NCc3ccc(OC)c(Cl)c3)nc(CCC(=O)O)nc12` [Example 2, 3-[7-(3-chloro-4-methoxybenzylamino)-1-methyl-3-propyl-1H-pyrazolo-[4,3-d]pyrimidin-5-yl]propionic acid] returned a melting point of 178 °C.
